Assay results taken from PubChem BioAssay (NCI).
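Interpolation was linear, between the two tested concentrations surrounding the appropriate level; five concentrations were tested over 48 hours in 96-well plates. Definition used: TGI = concentration required for complete inhibition of growth.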

Key:
Assay in all cases: NCI anticancer screen, dose series, 48 h
OVCAR-8 ovarian = tested on: OVCAR-8 ovarian
A498 renal = tested on: A498 renal
OVCAR-3 ovarian = tested on: OVCAR-3 ovarian
CAKI-1 renal = tested on: CAKI-1 renal
HCC-2998 colon = tested on: HCC-2998 colon
OVCAR-4 ovarian = tested on: OVCAR-4 ovarian
CCRF-CEM leukemia = tested on: CCRF-CEM leukemia
SK-MEL-5 melanoma = tested on: SK-MEL-5 melanoma
MDA-MB-435 = tested on: MDA-MB-435
U251 CNS = tested on: U251 CNS
NCI-H226 lung = tested on: NCI-H226 lung
HCT-116 colon = tested on: HCT-116 colon
NCI/ADR-RES ovarian = tested on: NCI/ADR-RES ovarian
EKVX NSCLC = tested on: EKVX NSCLC
BT-549 breast = tested on: BT-549 breast
KM12 colon = tested on: KM12 colon
MCF7 breast = tested on: MCF7 breast
MDA-MB-231 breast = tested on: MDA-MB-231 breast
TK-10 renal = tested on: TK-10 renal
COLO 205 colon = tested on: COLO 205 colon
HCT-15 colon = tested on: HCT-15 colon
HOP-62 NSCLC = tested on: HOP-62 NSCLC
MDA-N = tested on: MDA-N
IGROV1 ovarian = tested on: IGROV1 ovarian
UACC-257 melanoma = tested on: UACC-257 melanoma
SW-620 colon = tested on: SW-620 colon
SN12C renal = tested on: SN12C renal
M14 melanoma = tested on: M14 melanoma
ACHN renal = tested on: ACHN renal
MOLT-4 leukemia = tested on: MOLT-4 leukemia
DU-145 prostate = tested on: DU-145 prostate
SR leukemia = tested on: SR leukemia
OVCAR-5 ovarian = tested on: OVCAR-5 ovarian
SF-295 CNS = tested on: SF-295 CNS
SNB-75 CNS = tested on: SNB-75 CNS
PC-3 prostate = tested on: PC-3 prostate
K-562 leukemia = tested on: K-562 leukemia
MALME-3M melanoma = tested on: MALME-3M melanoma
SK-OV-3 ovarian = tested on: SK-OV-3 ovarian
UO-31 renal = tested on: UO-31 renal
SF-268 CNS = tested on: SF-268 CNS
SNB-19 CNS = tested on: SNB-19 CNS
SK-MEL-2 melanoma = tested on: SK-MEL-2 melanoma
RPMI-8226 leukemia = tested on: RPMI-8226 leukemia
HT29 colon = tested on: HT29 colon
LOX IMVI melanoma = tested on: LOX IMVI melanoma
HS 578T breast = tested on: HS 578T breast
NCI-H522 lung = tested on: NCI-H522 lung
RXF 393 renal = tested on: RXF 393 renal
NCI-H460 lung = tested on: NCI-H460 lung
786-0 renal = tested on: 786-0 renal
A549 NSCLC = tested on: A549 NSCLC
SK-MEL-28 melanoma = tested on: SK-MEL-28 melanoma
UACC-62 melanoma = tested on: UACC-62 melanoma
T-47D breast = tested on: T-47D breast
NCI-H23 lung = tested on: NCI-H23 lung
HL-60(TB) leukemia = tested on: HL-60(TB) leukemia
SF-539 CNS = tested on: SF-539 CNS

For `CN(C)/N=N/c1nc2c(c(=O)n(C)c(=O)n2C)n1C`, the TGI (OVCAR-8 ovarian) was > 100 µM, the TGI (A498 renal) was > 100 µM and the TGI (OVCAR-3 ovarian) was > 100 µM. The TGI (CAKI-1 renal) was > 100 µM, the TGI (HCC-2998 colon) was > 100 µM and the TGI (OVCAR-4 ovarian) was > 100 µM. The TGI (CCRF-CEM leukemia) was > 100 µM, the TGI (SK-MEL-5 melanoma) was > 100 µM and the TGI (MDA-MB-435) was > 100 µM. For the same compound, the TGI (U251 CNS) was > 100 µM, the TGI (NCI-H226 lung) was > 100 µM and the TGI (HCT-116 colon) was > 100 µM. The TGI (NCI/ADR-RES ovarian) was > 100 µM, the TGI (EKVX NSCLC) was > 100 µM and the TGI (BT-549 breast) was > 100 µM. The TGI (KM12 colon) was > 100 µM, the TGI (MCF7 breast) was > 100 µM and the TGI (MDA-MB-231 breast) was > 100 µM. The TGI (TK-10 renal) was > 100 µM, the TGI (COLO 205 colon) was > 100 µM and the TGI (HCT-15 colon) was > 100 µM. For the same compound, the TGI (HOP-62 NSCLC) was > 100 µM, the TGI (MDA-N) was > 100 µM and the TGI (IGROV1 ovarian) was > 100 µM. For the same compound, the TGI (UACC-257 melanoma) was > 100 µM, the TGI (SW-620 colon) was > 100 µM and the TGI (SN12C renal) was > 100 µM. The TGI (M14 melanoma) was > 100 µM, the TGI (ACHN renal) was > 100 µM and the TGI (MOLT-4 leukemia) was > 100 µM. The TGI (DU-145 prostate) was > 100 µM, the TGI (SR leukemia) was > 100 µM and the TGI (OVCAR-5 ovarian) was > 100 µM. For the same compound, the TGI (SF-295 CNS) was > 100 µM, the TGI (SNB-75 CNS) was > 100 µM and the TGI (PC-3 prostate) was > 100 µM. The TGI (K-562 leukemia) was > 100 µM, the TGI (MALME-3M melanoma) was > 100 µM and the TGI (SK-OV-3 ovarian) was > 100 µM. The TGI (UO-31 renal) was > 100 µM, the TGI (SF-268 CNS) was > 100 µM and the TGI (SNB-19 CNS) was > 100 µM. The TGI (SK-MEL-2 melanoma) was > 100 µM, the TGI (RPMI-8226 leukemia) was > 100 µM and the TGI (HT29 colon) was > 100 µM. For the same compound, the TGI (LOX IMVI melanoma) was > 100 µM, the TGI (HS 578T breast) was > 100 µM and the TGI (NCI-H522 lung) was > 100 µM. The TGI (RXF 393 renal) was > 100 µM, the TGI (NCI-H460 lung) was > 100 µM and the TGI (786-0 renal) was > 100 µM. For the same compound, the TGI (A549 NSCLC) was > 100 µM, the TGI (SK-MEL-28 melanoma) was > 100 µM and the TGI (UACC-62 melanoma) was > 100 µM. For the same compound, the TGI (T-47D breast) was > 100 µM.

`COc1ccc(N2C(=O)C3c4[nH]c5ccc(OCc6ccccc6)cc5c4C4CCC(C(C)(C)C)CC4C3C2=O)cc1` (stereo not given) was tested, and the TGI (OVCAR-8 ovarian) was > 100 µM, the TGI (A498 renal) was > 100 µM and the TGI (OVCAR-3 ovarian) was > 100 µM. The TGI (CAKI-1 renal) was > 100 µM, the TGI (NCI-H23 lung) was > 100 µM and the TGI (HCC-2998 colon) was > 100 µM. The TGI (OVCAR-4 ovarian) was 59.4 µM, the TGI (SK-MEL-5 melanoma) was > 100 µM and the TGI (MDA-MB-435) was > 100 µM. For the same compound, the TGI (U251 CNS) was 60.4 µM, the TGI (NCI-H226 lung) was > 100 µM and the TGI (HCT-116 colon) was > 100 µM. The TGI (NCI/ADR-RES ovarian) was > 100 µM, the TGI (EKVX NSCLC) was > 100 µM and the TGI (BT-549 breast) was > 100 µM. For the same compound, the TGI (KM12 colon) was > 100 µM, the TGI (MCF7 breast) was > 100 µM and the TGI (MDA-MB-231 breast) was > 100 µM. For the same compound, the TGI (TK-10 renal) was > 100 µM, the TGI (COLO 205 colon) was > 100 µM and the TGI (HCT-15 colon) was > 100 µM. The TGI (HOP-62 NSCLC) was > 100 µM, the TGI (MDA-N) was > 100 µM and the TGI (IGROV1 ovarian) was > 100 µM. The TGI (UACC-257 melanoma) was > 100 µM, the TGI (SW-620 colon) was > 100 µM and the TGI (SN12C renal) was > 100 µM. The TGI (M14 melanoma) was > 100 µM, the TGI (ACHN renal) was > 100 µM and the TGI (MOLT-4 leukemia) was > 100 µM. The TGI (DU-145 prostate) was > 100 µM, the TGI (SR leukemia) was > 100 µM and the TGI (OVCAR-5 ovarian) was > 100 µM. The TGI (SF-295 CNS) was > 100 µM, the TGI (HL-60(TB) leukemia) was > 100 µM and the TGI (PC-3 prostate) was > 100 µM. The TGI (K-562 leukemia) was > 100 µM, the TGI (SF-539 CNS) was > 100 µM and the TGI (MALME-3M melanoma) was 54.1 µM. The TGI (SK-OV-3 ovarian) was > 100 µM, the TGI (SF-268 CNS) was > 100 µM and the TGI (SNB-19 CNS) was > 100 µM. The TGI (SK-MEL-2 melanoma) was > 100 µM, the TGI (RPMI-8226 leukemia) was > 100 µM and the TGI (HT29 colon) was > 100 µM. For the same compound, the TGI (LOX IMVI melanoma) was > 100 µM, the TGI (HS 578T breast) was > 100 µM and the TGI (NCI-H522 lung) was > 100 µM. The TGI (RXF 393 renal) was > 100 µM, the TGI (NCI-H460 lung) was > 100 µM and the TGI (786-0 renal) was 81.8 µM. For the same compound, the TGI (A549 NSCLC) was > 100 µM, the TGI (SK-MEL-28 melanoma) was > 100 µM and the TGI (UACC-62 melanoma) was > 100 µM. It also gave a TGI (T-47D breast) of 55.5 µM.
